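A five-concentration, 48-hour dose response in 96-well plates underlies each endpoint, interpolated linearly between surrounding concentrations. At the TGI there is no net growth.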
Key:
Assay in all cases: DTP human tumour cell line panel, 48 h
[1] = tested on: SR leukemia
[2] = tested on: EKVX NSCLC
[3] = tested on: HOP-92 NSCLC
[4] = tested on: MOLT-4 leukemia
[5] = tested on: U251 CNS
[6] = tested on: K-562 leukemia
[7] = tested on: NCI-H226 lung
[8] = tested on: MDA-MB-435
[9] = tested on: SF-268 CNS
[10] = tested on: SNB-19 CNS
[11] = tested on: UACC-257 melanoma
[12] = tested on: SN12C renal
[13] = tested on: LOX IMVI melanoma
[14] = tested on: OVCAR-8 ovarian
[15] = tested on: HL-60(TB) leukemia
[16] = tested on: SF-295 CNS
[17] = tested on: OVCAR-4 ovarian
[18] = tested on: NCI-H460 lung
[19] = tested on: HCT-15 colon
[20] = tested on: DU-145 prostate
[21] = tested on: A498 renal
[22] = tested on: UACC-62 melanoma
[23] = tested on: HOP-62 NSCLC
[24] = tested on: NCI-H23 lung
[25] = tested on: SK-MEL-28 melanoma
[26] = tested on: MDA-N
[27] = tested on: 786-0 renal
[28] = tested on: BT-549 breast
[29] = tested on: CCRF-CEM leukemia
[30] = tested on: SK-MEL-5 melanoma
[31] = tested on: TK-10 renal
[32] = tested on: M14 melanoma
[33] = tested on: ACHN renal
[34] = tested on: RXF 393 renal
[35] = tested on: PC-3 prostate
[36] = tested on: NCI-H522 lung
[37] = tested on: T-47D breast
[38] = tested on: IGROV1 ovarian
[39] = tested on: NCI/ADR-RES ovarian
[40] = tested on: MDA-MB-231 breast
[41] = tested on: CAKI-1 renal
[42] = tested on: HT29 colon
[43] = tested on: SK-MEL-2 melanoma
[44] = tested on: HS 578T breast
[45] = tested on: A549 NSCLC
[46] = tested on: OVCAR-3 ovarian
[47] = tested on: SW-620 colon
[48] = tested on: KM12 colon
[49] = tested on: UO-31 renal
[50] = tested on: RPMI-8226 leukemia
[51] = tested on: OVCAR-5 ovarian
[52] = tested on: HCT-116 colon
[53] = tested on: SNB-75 CNS
[54] = tested on: HCC-2998 colon
[55] = tested on: MCF7 breast
[56] = tested on: SK-OV-3 ovarian
[57] = tested on: COLO 205 colon
[58] = tested on: MALME-3M melanoma
[59] = tested on: SF-539 CNS

Measured: TGI

COc1ccc2nccc(SCC(=O)O)c2c1
> 100 µM: [1] | [2] | [3] | [4] | [5] | [6] | [7] | [8] | [9] | [10] | [11] | [12] | [13] | [14] | [15] | [16] | [17] | [18] | [19] | [20] | [21] | [22] | [23] | [24] | [25] | [26] | [27] | [28] | [29] | [30] | [31] | [32] | [33] | [34] | [35] | [36] | [37] | [38] | [39] | [40] | [41] | [42] | [43] | [44] | [45] | [46] | [47] | [48] | [49] | [50] | [51] | [52]

CC(C)(C)[Si](C)(C)Oc1cc(CO)cc2c1cc(=N)o[n+]2[O-]
9.25 µM: [55]
> 10 µM: [2] | [53] | [6] | [54] | [9] | [11] | [12] | [14] | [15] | [16] | [19] | [20] | [56] | [22] | [57] | [23] | [24] | [25] | [26] | [27] | [29] | [30] | [31] | [32] | [34] | [35] | [37] | [38] | [40] | [41] | [42] | [45] | [47] | [48] | [50] | [58]
7.58 µM: [1]
9.28 µM: [4]

NC(N)=NS(=O)(=O)c1ccc(NNc2c3ccccc3nc3c(C(=O)Nc4ccc(S(=O)(=O)N=C(N)N)cc4)cccc23)cc1
> 100 µM: [1] | [3] | [53] | [5] | [54] | [7] | [8] | [9] | [10] | [11] | [12] | [13] | [14] | [16] | [55] | [17] | [18] | [59] | [19] | [20] | [56] | [22] | [57] | [23] | [24] | [26] | [27] | [28] | [30] | [31] | [32] | [33] | [34] | [35] | [37] | [38] | [39] | [40] | [41] | [42] | [43] | [44] | [45] | [46] | [47] | [48] | [49] | [50] | [51] | [52]
89.6 µM: [25]
95.8 µM: [2]
60.1 µM: [29]
88.8 µM: [15]
67.1 µM: [36]
79.1 µM: [58]
63.6 µM: [6]
80.4 µM: [4]

C=CC1CCC[N+]1(CC(=O)OCC)Cc1ccccc1 (stereo not given)
> 100 µM: [1] | [2] | [3] | [53] | [4] | [5] | [6] | [54] | [7] | [8] | [9] | [10] | [11] | [12] | [14] | [15] | [16] | [55] | [17] | [18] | [19] | [20] | [56] | [21] | [22] | [57] | [23] | [24] | [25] | [26] | [27] | [28] | [29] | [30] | [31] | [32] | [33] | [35] | [37] | [38] | [39] | [40] | [42] | [45] | [46] | [47] | [49] | [50] | [51] | [52] | [58]
